Patent publication US9629861B2, “Compositions and methods for treating bacterial infections using ceftaroline” (Forest Laboratories Holdings Limited, priority 2009, dated 2017)
Like-named read-outs stand apart in the source and are kept apart here.

Key:
CYP2B6 [1] = experiment: CYP induction in human hepatocytes; assay type: in vitro ADME
CYP2C8 [2] = conditions: human hepatocytes
CYP2C19 [3] = conditions: human hepatocytes
CYP3A4/5 = experiment: CYP induction in human hepatocytes; assay type: in vitro ADME
CYP2C9 [4] = experiment: CYP induction in human hepatocytes; assay type: in vitro ADME
CYP1A2 [5] = conditions: human hepatocytes
[6] = system: Community-Acquired Bacterial Pneumonia (CABP); experiment: Phase 3 CABP Study 1 (Example 5, adjunctive clarithromycin); assay type: in vivo, human; conditions: versus ceftriaxone, CABP Study 1
Description: (§1) In both treatment groups of CABP Study 1, two doses of oral clarithromycin (500 mg q12h), were administered as adjunctive therapy starting on Study Day 1. No adjunctive macrolide therapy was used in CABP Study 2. Patients with new or progressive pulmonary infiltrate(s) on chest radiography and clinical signs and symptoms consistent with CABP with the need for hospitalization and IV therapy were enrolled in the studies. Treatment duration was 5 to 7 days. A switch to oral therapy was not allowed. The Modified Intent-to-Treat Efficacy (MITTE) population included all patients who received any amount of study drug according to their randomized treatment group and were in PORT (Pneumonia Outcomes Research Team) Risk Class III or IV.
(§2) The primary efficacy endpoint was the clinical response at the Test of Cure (TOC) visit in the co-primary CE and MITTE populations (Table 4).
(§3) The secondary objective of the study was to evaluate the following: the clinical response at end-of-therapy (EOT); the microbiological favorable outcome rate at TOC; the overall (clinical and radiographic) success rate at TOC; the clinical and microbiological response by pathogen at TOC; clinical relapse at late follow-up (LFU); microbiological reinfection/recurrence at LFU; and safety.
(§4) The primary efficacy outcome measures were the per-subject clinical cure rate at TOC in the CE and MITTE Populations. Subjects were considered clinically cured at TOC if they had total resolution of all signs and symptoms of the baseline infection, or improvement of the infection such that no further antimicrobial therapy was necessary.
(§5) Non-inferiority was concluded if the lower limit of the 95% CI was higher than −10%.

CYP2C9 [7] = target: T1, CYP2C9 (Homo sapiens, UniProt P11712); experiment: CYP inhibition in human liver microsomes; assay type: in vitro ADME
T1 construct: In vitro studies in human liver microsomes; from tissue; host or cells: human liver microsomes

CYP2C19 [8] = target: T2, CYP2C19 (Homo sapiens, UniProt P33261); experiment: CYP inhibition in human liver microsomes; assay type: in vitro ADME
T2 construct: In vitro studies in human liver microsomes; from tissue; host or cells: human liver microsomes

CYP2C8 [9] = target: T3, CYP2C8 (Homo sapiens, UniProt P10632); experiment: CYP inhibition in human liver microsomes; assay type: in vitro ADME
T3 construct: In vitro studies in human liver microsomes; from tissue; host or cells: human liver microsomes

[10] = system: Community-Acquired Bacterial Pneumonia (CABP); experiment: Two Phase 3 studies in CABP, integrated; assay type: in vivo, human; conditions: versus ceftriaxone, integrated CABP studies
Description: as §1
(§6) The primary efficacy endpoint was the clinical response at the Test of Cure (TOC) visit in the co-primary CE and MITTE populations (Table 4). In a subgroup analysis (CE population), the comparative clinical cure rates between the ceftaroline group and the ceftriaxone group were not affected by age, gender, race, ethnicity, or weight.

CYP3A4 = target: T4, CYP3A4 (Homo sapiens, UniProt P08684); experiment: CYP inhibition in human liver microsomes; assay type: in vitro ADME
T4 construct: In vitro studies in human liver microsomes; from tissue; host or cells: human liver microsomes

[11] = system: complicated skin and skin structure infections (cSSSI); experiment: Phase 3 cSSSI Study 2; assay type: in vivo, human; conditions: versus vancomycin/aztreonam
Description: A total of 1396 adults with clinically documented complicated skin and skin structure infections (cSSSI) were enrolled in two randomized, multi-center, multinational, double-blind, studies comparing 600 mg ceftaroline fosamil administered intravenously over 1 hour every 12 hours to vancomycin plus aztreonam [1 g vancomycin administered intravenously over 1 hour followed by 1 g aztreonam administered intravenously over 1 hour every 12 hours]. Patients with cSSSI (deep/extensive cellulitis, a major abscess, a wound infection [surgical or traumatic], infected insect bites, burns or ulcers, lower extremity infection in patients with diabetes mellitus or peripheral vascular disease), were enrolled in the studies. Treatment duration was 5 to 14 days. A switch to oral therapy was not allowed. The Modified Intent-to-Treat (MITT) population included all patients who received any amount of study drug according to their randomized treatment group.
as §6, with “was” for “was the”, “MITT” for “MITTE”, “2). […]” for “4).”, “vancomycin plus aztreonam” for “ceftriaxone”

CYP2A6 = target: T5, CYP2A6 (Homo sapiens, UniProt P11509); experiment: CYP inhibition in human liver microsomes; assay type: in vitro ADME
T5 construct: In vitro studies in human liver microsomes; from tissue; host or cells: human liver microsomes

CYP2D6 = target: T6, CYP2D6 (Homo sapiens, UniProt P10635); experiment: CYP inhibition in human liver microsomes; assay type: in vitro ADME
T6 construct: In vitro studies in human liver microsomes; from tissue; host or cells: human liver microsomes

CYP2B6 [12] = target: T7, CYP2B6 (Homo sapiens, UniProt P20813); experiment: CYP inhibition in human liver microsomes; assay type: in vitro ADME
T7 construct: In vitro studies in human liver microsomes; from tissue; host or cells: human liver microsomes

CYP2E1 = target: T8, CYP2E1 (Homo sapiens, UniProt P05181); experiment: CYP inhibition in human liver microsomes; assay type: in vitro ADME
T8 construct: In vitro studies in human liver microsomes; from tissue; host or cells: human liver microsomes

[13] = system: Community-Acquired Bacterial Pneumonia (CABP); experiment: Phase 3 CABP Study 2 (Example 4, no adjunctive macrolide); assay type: in vivo, human; conditions: for Treatment Difference in clinical cure rate at TOC: versus ceftriaxone, CABP Study 2
Description: as §1, §2
as §3, with “objectives” for “objective”, “were” for “was”, “following:” for “following: the”
as §4, with “The following criteria were used for evaluation: The primary” for “The primary”, “rate at test-of-cure (TOC) in the” for “rate at TOC in the”
as §5

CYP1A1 = target: T9, CYP1A1 (Homo sapiens, UniProt P04798); experiment: CYP inhibition in human liver microsomes; assay type: in vitro ADME
T9 construct: In vitro studies in human liver microsomes; from tissue; host or cells: human liver microsomes

CYP1A2 [14] = target: CYP1A2 (Homo sapiens, UniProt P05177); assay type: in vitro ADME; conditions: human liver microsomes
Aqueous solubility = assay type: physicochemical; conditions: with L-arginine, depending on the molarity of the solution
Description: In further embodiments, the compositions may comprise L-arginine.

[15] = Safety, four pooled controlled comparative Phase 3 studies (two cSSSI, two CABP); assay type: in vivo, human; conditions: pooled Phase 3 studies
Description: Ceftaroline fosamil was evaluated in four controlled comparative Phase 3 clinical studies (two in cSSSI and two in CABP).

[16] = system: Haemophilus parainfluenzae; conditions: ME patients with CABP
[17] = Pharmacokinetics of ceftaroline after IV infusion of ceftaroline fosamil in adults with normal renal function; set-up: species or system human; conditions: in vivo
Description: The standard deviation is shown in brackets.

[18] = Example 4
Description: The 600-mg dose of ceftaroline fosamil infused over 60 minutes was split into two infusions in order to maintain the blind. For subjects with moderate renal impairment (30 ml/min<CrCl≦50 ml/min), as estimated by the Cockroft-Gault formula, unblinded pharmacy staff or unblinded study staff could adjust the dose of ceftaroline fosamil to two consecutive 200 mg infusions and readjust dose to two 300 mg infusions when renal function improved (CrCl>50 mL/min). The duration of treatment was between 5 to 7 days.
(§7) All subjects who received any amount of study drug were included in the safety analysis. Safety measures included monitoring for adverse events (AE) up to TOC and serious adverse events (SAE) through LFU; recording vital signs, physical examination, electrocardiogram (ECG), and clinical laboratory findings (clinical chemistry, hematology, and urinalysis), at prespecified times throughout the study.

[19] = Example 5
Description: The 600-mg dose of ceftaroline fosamil infused over 60 minutes was split into two infusions in order to maintain the blind. For subjects with moderate renal impairment (30 mL/min<CrCl≦50 mL/min), as estimated by the Cockroft-Gault formula, unblinded pharmacy staff or unblinded study staff could adjust the dose of ceftaroline fosamil to two consecutive 200 mg infusions and readjust dose to two 300 mg infusions when renal function improved (CrCl>50 mL/min). The duration of treatment was between 5 to 7 days.
as §7

[20] = Safety population, listed as ceftriaxone

T4 sequence (P08684 whole entry): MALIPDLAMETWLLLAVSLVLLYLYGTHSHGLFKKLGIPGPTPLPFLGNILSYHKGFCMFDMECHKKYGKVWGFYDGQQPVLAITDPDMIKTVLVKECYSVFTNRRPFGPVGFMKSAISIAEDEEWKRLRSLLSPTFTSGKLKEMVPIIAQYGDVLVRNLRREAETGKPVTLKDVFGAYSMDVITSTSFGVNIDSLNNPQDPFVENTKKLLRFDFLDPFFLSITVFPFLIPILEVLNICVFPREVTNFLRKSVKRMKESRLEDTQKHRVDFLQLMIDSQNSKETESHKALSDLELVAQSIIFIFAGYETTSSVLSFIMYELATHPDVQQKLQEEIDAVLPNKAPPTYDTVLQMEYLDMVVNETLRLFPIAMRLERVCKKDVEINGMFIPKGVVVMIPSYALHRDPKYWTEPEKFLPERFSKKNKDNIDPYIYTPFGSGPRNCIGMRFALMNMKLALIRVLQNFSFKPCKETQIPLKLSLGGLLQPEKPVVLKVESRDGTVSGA
T1 sequence (P11712 whole entry): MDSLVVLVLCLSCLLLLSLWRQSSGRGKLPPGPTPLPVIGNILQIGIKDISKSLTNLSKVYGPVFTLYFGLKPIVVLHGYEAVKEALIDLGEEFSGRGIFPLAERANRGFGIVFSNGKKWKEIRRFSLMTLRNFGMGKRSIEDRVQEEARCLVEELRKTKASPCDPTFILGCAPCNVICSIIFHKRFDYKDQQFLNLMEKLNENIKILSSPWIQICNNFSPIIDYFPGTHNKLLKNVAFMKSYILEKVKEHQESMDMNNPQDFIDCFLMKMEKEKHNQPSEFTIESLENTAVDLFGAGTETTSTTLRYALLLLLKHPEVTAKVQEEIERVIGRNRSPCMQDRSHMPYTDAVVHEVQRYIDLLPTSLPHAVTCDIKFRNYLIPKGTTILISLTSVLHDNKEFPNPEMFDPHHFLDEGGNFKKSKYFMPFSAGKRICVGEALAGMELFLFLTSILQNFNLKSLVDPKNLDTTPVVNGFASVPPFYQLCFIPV
T2 sequence (P33261 whole entry): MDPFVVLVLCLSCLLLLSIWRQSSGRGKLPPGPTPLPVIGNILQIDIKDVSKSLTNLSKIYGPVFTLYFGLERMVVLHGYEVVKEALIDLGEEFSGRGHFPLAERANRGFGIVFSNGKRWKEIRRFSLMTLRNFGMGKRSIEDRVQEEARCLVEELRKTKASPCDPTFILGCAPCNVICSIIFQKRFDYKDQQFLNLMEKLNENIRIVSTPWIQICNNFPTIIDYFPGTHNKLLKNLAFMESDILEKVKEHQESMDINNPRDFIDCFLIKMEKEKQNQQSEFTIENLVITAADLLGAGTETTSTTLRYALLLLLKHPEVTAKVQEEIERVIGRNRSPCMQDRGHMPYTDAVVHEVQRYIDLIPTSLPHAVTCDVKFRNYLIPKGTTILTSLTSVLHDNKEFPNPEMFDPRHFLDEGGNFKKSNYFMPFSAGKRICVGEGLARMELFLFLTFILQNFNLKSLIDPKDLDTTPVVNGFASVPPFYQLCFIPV
T9 sequence (P04798 whole entry): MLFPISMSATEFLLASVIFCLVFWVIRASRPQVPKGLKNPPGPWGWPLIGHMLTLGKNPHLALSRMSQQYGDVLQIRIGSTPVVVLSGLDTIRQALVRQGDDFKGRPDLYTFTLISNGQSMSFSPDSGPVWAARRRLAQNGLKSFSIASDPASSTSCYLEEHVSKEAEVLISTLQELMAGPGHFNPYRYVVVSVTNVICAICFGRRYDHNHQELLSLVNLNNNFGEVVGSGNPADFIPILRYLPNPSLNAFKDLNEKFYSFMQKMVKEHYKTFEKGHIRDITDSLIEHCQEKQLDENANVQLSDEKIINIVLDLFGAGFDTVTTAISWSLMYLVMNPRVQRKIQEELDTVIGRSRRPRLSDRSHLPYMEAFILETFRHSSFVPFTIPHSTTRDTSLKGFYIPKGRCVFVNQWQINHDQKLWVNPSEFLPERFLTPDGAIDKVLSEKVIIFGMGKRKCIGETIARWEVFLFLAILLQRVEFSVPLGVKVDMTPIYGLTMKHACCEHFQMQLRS
T7 sequence (P20813 whole entry): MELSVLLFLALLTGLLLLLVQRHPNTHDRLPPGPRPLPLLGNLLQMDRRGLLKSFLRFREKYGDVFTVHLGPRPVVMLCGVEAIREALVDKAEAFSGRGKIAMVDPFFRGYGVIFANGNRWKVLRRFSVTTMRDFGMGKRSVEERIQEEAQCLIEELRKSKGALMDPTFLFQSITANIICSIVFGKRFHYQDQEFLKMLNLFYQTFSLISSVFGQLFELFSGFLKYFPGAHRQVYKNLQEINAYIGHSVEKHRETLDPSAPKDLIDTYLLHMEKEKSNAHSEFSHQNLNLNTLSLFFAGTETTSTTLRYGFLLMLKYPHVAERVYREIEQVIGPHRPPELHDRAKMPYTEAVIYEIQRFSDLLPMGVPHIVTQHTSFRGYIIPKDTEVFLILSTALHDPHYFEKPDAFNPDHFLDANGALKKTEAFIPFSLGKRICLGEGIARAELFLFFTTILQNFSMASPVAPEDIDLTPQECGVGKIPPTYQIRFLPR
T5 sequence (P11509 whole entry): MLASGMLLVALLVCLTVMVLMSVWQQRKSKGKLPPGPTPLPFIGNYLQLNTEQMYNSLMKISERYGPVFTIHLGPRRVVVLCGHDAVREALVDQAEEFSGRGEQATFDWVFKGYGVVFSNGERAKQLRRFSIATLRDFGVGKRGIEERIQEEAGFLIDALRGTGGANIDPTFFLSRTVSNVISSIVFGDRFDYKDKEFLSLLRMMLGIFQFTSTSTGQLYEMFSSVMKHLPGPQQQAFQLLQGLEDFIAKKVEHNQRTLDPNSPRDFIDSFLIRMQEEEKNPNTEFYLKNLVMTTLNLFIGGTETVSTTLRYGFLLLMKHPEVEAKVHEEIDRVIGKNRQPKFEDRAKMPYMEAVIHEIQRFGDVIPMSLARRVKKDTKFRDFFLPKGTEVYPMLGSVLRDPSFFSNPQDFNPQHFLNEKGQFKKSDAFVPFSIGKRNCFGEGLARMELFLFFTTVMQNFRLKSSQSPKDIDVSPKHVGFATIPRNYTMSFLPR
T8 sequence (P05181 whole entry): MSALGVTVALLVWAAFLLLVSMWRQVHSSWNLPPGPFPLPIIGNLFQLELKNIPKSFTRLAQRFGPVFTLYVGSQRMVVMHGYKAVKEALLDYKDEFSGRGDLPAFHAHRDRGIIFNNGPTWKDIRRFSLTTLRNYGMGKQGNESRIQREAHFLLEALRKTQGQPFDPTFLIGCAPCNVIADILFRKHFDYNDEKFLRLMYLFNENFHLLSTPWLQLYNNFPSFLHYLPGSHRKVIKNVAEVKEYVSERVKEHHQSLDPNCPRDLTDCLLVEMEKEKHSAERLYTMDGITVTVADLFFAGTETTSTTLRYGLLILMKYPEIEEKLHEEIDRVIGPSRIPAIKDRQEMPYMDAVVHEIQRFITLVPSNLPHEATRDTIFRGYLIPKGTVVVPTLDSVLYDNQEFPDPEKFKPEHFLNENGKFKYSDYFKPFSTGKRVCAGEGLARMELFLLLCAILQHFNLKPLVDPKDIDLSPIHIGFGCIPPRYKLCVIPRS
Chain of CYP1A2 (Homo sapiens, UniProt P05177) (P05177 whole entry): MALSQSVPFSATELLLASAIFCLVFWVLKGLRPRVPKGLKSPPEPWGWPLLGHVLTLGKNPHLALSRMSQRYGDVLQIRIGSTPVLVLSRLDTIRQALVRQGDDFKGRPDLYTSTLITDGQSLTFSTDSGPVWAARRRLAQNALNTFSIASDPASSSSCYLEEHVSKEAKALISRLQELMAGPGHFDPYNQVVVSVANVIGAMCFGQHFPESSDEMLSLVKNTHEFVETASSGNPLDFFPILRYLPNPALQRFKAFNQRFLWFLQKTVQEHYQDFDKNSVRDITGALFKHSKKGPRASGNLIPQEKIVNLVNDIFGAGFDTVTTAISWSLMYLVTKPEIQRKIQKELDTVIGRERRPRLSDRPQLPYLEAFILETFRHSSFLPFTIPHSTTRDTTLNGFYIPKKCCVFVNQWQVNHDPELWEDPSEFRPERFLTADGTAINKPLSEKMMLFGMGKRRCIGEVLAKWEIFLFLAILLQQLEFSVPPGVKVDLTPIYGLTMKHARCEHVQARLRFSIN
T3 sequence (P10632 whole entry): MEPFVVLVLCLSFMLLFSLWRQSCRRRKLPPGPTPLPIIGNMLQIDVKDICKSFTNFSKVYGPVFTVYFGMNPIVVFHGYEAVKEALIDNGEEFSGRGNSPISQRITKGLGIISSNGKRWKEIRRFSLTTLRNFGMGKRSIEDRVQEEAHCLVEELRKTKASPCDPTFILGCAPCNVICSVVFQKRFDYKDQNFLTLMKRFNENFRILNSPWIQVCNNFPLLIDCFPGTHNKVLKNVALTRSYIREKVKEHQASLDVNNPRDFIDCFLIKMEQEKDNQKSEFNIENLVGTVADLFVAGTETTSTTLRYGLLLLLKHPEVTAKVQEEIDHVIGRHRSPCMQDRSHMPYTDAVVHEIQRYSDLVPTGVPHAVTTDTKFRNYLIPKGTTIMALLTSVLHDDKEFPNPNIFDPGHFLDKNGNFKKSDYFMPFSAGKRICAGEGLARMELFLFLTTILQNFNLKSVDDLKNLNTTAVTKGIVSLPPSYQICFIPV
T6 sequence (P10635 whole entry): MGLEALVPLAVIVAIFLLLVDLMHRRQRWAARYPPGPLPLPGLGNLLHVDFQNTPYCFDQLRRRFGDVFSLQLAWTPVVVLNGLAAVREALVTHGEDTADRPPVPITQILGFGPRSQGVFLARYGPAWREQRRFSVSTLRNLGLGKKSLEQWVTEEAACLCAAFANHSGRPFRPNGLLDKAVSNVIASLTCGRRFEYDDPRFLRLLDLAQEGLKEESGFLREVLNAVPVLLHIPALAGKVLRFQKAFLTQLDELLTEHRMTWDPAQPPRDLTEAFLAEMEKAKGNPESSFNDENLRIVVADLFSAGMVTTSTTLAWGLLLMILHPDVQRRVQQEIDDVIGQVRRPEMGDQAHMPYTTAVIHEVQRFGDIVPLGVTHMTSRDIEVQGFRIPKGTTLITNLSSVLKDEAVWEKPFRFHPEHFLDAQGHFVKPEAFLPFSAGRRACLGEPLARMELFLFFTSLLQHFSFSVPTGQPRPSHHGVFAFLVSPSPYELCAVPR

SMILES: CCO/N=C(\C(=O)N[C@H](C(=O)[O-])[C@@H]1NC(C(=O)[O-])=C(Sc2nc(-c3cc[n+](C)cc3)cs2)CS1)c1nsc(N)n1.[H+] [ceftaroline M-1]
- induction of CYP2B6 (CYP2B6 [1]): not inducers
- induction of CYP2C8 (CYP2C8 [2]): not inducers
- induction of CYP2C19 (CYP2C19 [3]): not inducers
- induction of CYP3A4/5 (CYP3A4/5): not inducers
- induction of CYP2C9 (CYP2C9 [4]): not inducers
- induction of CYP1A2 (CYP1A2 [5]): not inducers

SMILES: CCO/N=C(\C(=O)N[C@@H]1C(=O)N2C(C(=O)[O-])=C(Sc3nc(-c4cc[n+](C)cc4)cs3)CS[C@H]12)c1nsc(NP(=O)(O)O)n1 [Ceftaroline fosamil, (6R,7R)-7-{(2Z)-2-(ethoxyimino)-2-[5-(phosphonoamino)-1,2,4-thiadiazol-3-yl]acetamido}-3-{[4-(1-methylpyridin-1-ium-4-yl)-1,3-thiazol-2-yl]sulfanyl}-8-oxo-5-thia-1-azabicyclo[4.2.0]oct-2-ene-2-carboxylate]
- Treatment Difference in clinical cure rate at TOC ([6]; CE): 8.4 (1.4, 15.4) %
- Treatment Difference in clinical cure rate at TOC ([6]; MITTE): 6.2 (−0.2, 12.6) %
- inhibition of CYP2C9 (CYP2C9 [7]): neither ceftaroline fosamil nor ceftaroline inhibits
- inhibition of CYP2C19 (CYP2C19 [8]): neither ceftaroline fosamil nor ceftaroline inhibits
- inhibition of CYP2C8 (CYP2C8 [9]): neither ceftaroline fosamil nor ceftaroline inhibits
- induction of CYP2B6 (CYP2B6 [1]): not inducers
- Treatment Difference in clinical cure rate at TOC ([10]; CE): 6.7 (1.6, 11.8) %
- Treatment Difference in clinical cure rate at TOC ([10]; MITTE): 6.0 (1.4, 10.7) %
- inhibition of CYP3A4 (CYP3A4): neither ceftaroline fosamil nor ceftaroline inhibits
- Treatment Difference (2-sided 95% CI) ([11]; CE): 0.1 (−4.4., 4.5)
- Treatment Difference (2-sided 95% CI) ([11]; MITT): −0.4 (−5.8, 5.0)
- induction of CYP2C8 (CYP2C8 [2]): not inducers
- inhibition of CYP2A6 (CYP2A6): neither ceftaroline fosamil nor ceftaroline inhibits
- induction of CYP2C19 (CYP2C19 [3]): not inducers
- inhibition of CYP2D6 (CYP2D6): neither ceftaroline fosamil nor ceftaroline inhibits
- inhibition of CYP2B6 (CYP2B6 [12]): neither ceftaroline fosamil nor ceftaroline inhibits
- inhibition of CYP2E1 (CYP2E1): neither ceftaroline fosamil nor ceftaroline inhibits
- Treatment Difference in clinical cure rate at TOC ([13]; CE): 4.9 (−2.5, 12.5) %
- Treatment Difference in clinical cure rate at TOC ([13]; MITTE): 5.9 (−1.0, 12.7) %
- induction of CYP3A4/5 (CYP3A4/5): not inducers
- inhibition of CYP1A1 (CYP1A1): neither ceftaroline fosamil nor ceftaroline inhibits
- inhibition of CYP1A2 (CYP1A2 [14]): neither ceftaroline fosamil nor ceftaroline inhibits
- solubility (Aqueous solubility): more than 200 mg per ml
- highest incidence of any adverse reaction [15]: ≤ 5%
- hypersensitivity leading to discontinuation [15]: 0.3%
- Clinical Cure Rate by Infecting Pathogen [16]: 16/16 (100%)
- induction of CYP2C9 (CYP2C9 [4]): not inducers
- conversion of prodrug in plasma [17]: rapidly converted into bioactive ceftaroline in plasma
- induction of CYP1A2 (CYP1A2 [5]): not inducers

SMILES: CO/N=C(\C(=O)N[C@@H]1C(=O)N2C(C(=O)O)=C(CSc3nc(=O)c(=O)[nH]n3C)CS[C@H]12)c1csc(N)n1 [Ceftriaxone, reference compound]
- TEAEs leading to premature discontinuation from study drug administration [18]: 1.3%
- any study-drug-related TEAEs, subjects [18]: 13.7%
- study-drug-related TEAE: headache [18]: 1.0%
- Early withdrawal from study, reason Adverse Event ([18]; MITTE population): 7 (2.6) %
- Any AE (TEAE), subjects ([18]; Safety population): 145 (47.2) %
- COPD, subjects ([18]; Safety population): 5 (1.6) %
- Diarrhea, subjects ([18]; Safety population): 9 (2.9) %
- Headache, subjects ([18]; Safety population): 5 (1.6) %
- Hypertension, subjects ([18]; Safety population): 8 (2.6) %
- Hypokalemia, subjects ([18]; Safety population): 5 (1.6) %
- Insomnia, subjects ([18]; Safety population): 8 (2.6) %
- Nausea, subjects ([18]; Safety population): 6 (2.0) %
- Phlebitis, subjects ([18]; Safety population): 8 (2.6) %
- Pleural effusion, subjects ([18]; Safety population): 7 (2.3) %
- Pneumonia, subjects ([18]; Safety population): 4 (1.3) %
- Any AE (TEAE), subjects [18, 20]: 47.2%
- TEAEs leading to premature discontinuation from study drug administration [19]: 3.9%
- subjects with SAEs considered possibly or probably related to study drug [19]: 5 subjects
- Early withdrawal from study, reason Adverse Event ([19]; MITTE population): 7 (2.3) %
- Any AE (TEAE), subjects ([19]; Safety population): 136 (44.2) %
- Constipation, subjects ([19]; Safety population): 5 (1.6) %
- Diarrhea, subjects ([19]; Safety population): 7 (2.3) %
- Headache, subjects ([19]; Safety population): 4 (1.3) %
- Hypertension, subjects ([19]; Safety population): 8 (2.6) %
- Hypokalemia, subjects ([19]; Safety population): 10 (3.2) %
- Insomnia, subjects ([19]; Safety population): 6 (1.9) %
- Nausea, subjects ([19]; Safety population): 8 (2.6) %
- Phlebitis, subjects ([19]; Safety population): 5 (1.6) %
- Any AE (TEAE), subjects [19, 20]: 44.2%
- Diarrhea, subjects [19, 20]: 2.3%
- Headache, subjects [19, 20]: 1.3%
- Per-subject Clinical Cure Rate at the EOT Visit ([13]; MITTE population, Example 4): 215 (78.8) %
- Favorable Microbiological Outcome at the TOC Visit ([13]; mMITTE population, Example 4): 72 (81.8) %
- Clinical Cure Rate by Infecting Pathogen [16]: 15/17 (88.2%)
